Consider 22 compounds from US10118918B2, “PRMT5 inhibitors and uses thereof” (Epizyme, Inc., priority 2012, dated 2018).

The first assay has as its system symmetric di-methyl arginine in Z-138 cells. The assay is described as follows: Z-138 Methylation Assay (In Cell Western for symmetric di-methyl arginine and DNA content). In kind it is cell-based. The conditions noted are these: 96 hours incubation, read-out: ICW EC50. The source says: [formula] Where top and bottom are the normally allowed to float, but may be fixed at 100 or 0 respectively in a 3-parameter fit. The Hill Coefficient normally allowed to float but may also be fixed at 1 in a 3-parameter fit. Y is the % inhibition and X is the compound concentration. Z-138 Methylation Assay
Z-138 suspension cells were purchased from ATCC (American Type Culture Collection, Manassas, Va.). RPMI/Glutamax medium, penicillin-streptomycin, heat inactivated fetal bovine serum, and D-PBS were purchased from Life Technologies, Grand Island, N.Y., USA. Odyssey blocking buffer, 800CW goat anti-rabbit IgG (H+L) antibody, and Licor Odyssey infrared scanner were purchased from Licor Biosciences, Lincoln, Nebr., USA. Symmetric di-methyl arginine antibody was purchased from EMD Millipore, Billerica, Mass., USA. 16% Paraformaldehyde was purchased from Electron Microscopy Sciences, Hatfield, Pa., USA.
Z-138 suspension cells were maintained in growth medium (RPMI 1640 supplemented with 10% v/v heat inactivated fetal bovine serum and 100 units/mL penicillin-streptomycin) and cultured at 37° C. under 5% CO2.
Cell Treatment, in Cell Western (ICW) for Detection of Symmetric Di-Methyl Arginine and DNA Content.
Z-138 cells were seeded in assay medium at a concentration of 50,000 cells per mL to a 384-well cell culture plate with 50 μL per well. Compound (100 nL) from 384 well source plates was added directly to 384 well cell plate. Plates were incubated at 37° C., 5% CO2 for 96 hours. After four days of incubation, 40 μL of cells from incubated plates were added to poly-D-lysine coated 384 well culture plates (BD Biosciences 356697). Plates were incubated at room temperature for 30 minutes then incubated at 37° C., 5% CO2 for 5 hours. After the incubation, 40 μL per well of 8% paraformaldehyde in PBS (16% paraformaldahyde was diluted to 8% in PBS) was added to each plate and incubated for 30 minutes. Plates were transferred to a Biotek 405 plate washer and washed 5 times with 100 μL per well of wash buffer (IX PBS with 0.1% Triton X-100 (v/v)). Next 30 μL per well of Odyssey blocking buffer were added to each plate and incubated 1 hour at room temperature. Blocking buffer was removed and 20 μL per well of primary antibody was added (symmetric di-methyl arginine diluted 1:100 in Odyssey buffer with 0.1% Tween 20 (v/v)) and plates were incubated overnight (16 hours) at 4° C. Plates were washed 5 times with 100 μL per well of wash buffer. Next 20 μL per well of secondary antibody was added (1:200 800CW goat anti-rabbit IgG (H+L) antibody, 1:1000 DRAQ5 (Biostatus limited) in Odyssey buffer with 0.1% Tween 20 (v/v)) and incubated for 1 hour at room temperature. The plates were washed 5 times with 100 μL per well wash buffer then 1 time with 100 μL per well of water. Plates were allowed to dry at room temperature then imaged on the Licor Odyssey machine which measures integrated intensity at 700 nm and 800 nm wavelengths. Both 700 and 800 channels were scanned.
First, the ratio for each well was determined by:
Each plate included fourteen control wells of DMSO only treatment (minimum inhibition) as well as fourteen control wells for maximum inhibition treated with 3 μM of a reference compound (Background wells). The average of the ratio values for each control type was calculated and used to determine the percent inhibition for each test well in the plate. Reference compound was serially diluted three-fold in DMSO for a total of nine test concentrations, beginning at 3 μM. Percent inhibition was determined and IC50 curves were generated using triplicate wells per concentration of compound. […]
Regarding “N-(2-hydroxy-3-(isoindolin-2-yl)propyl)-2-((4-methyl-3,4-dihydro-2H-benzo[b][1,4]oxazin-5-yl)oxy)acetamide [compound 10]”, the EC50 was 0.101 to 1 µM.

Still in this assay, the particulars now being: Homo sapiens, 96 hours incubation, read-out: ICW EC50.
In the case of `C[C@@H](Oc1cccc2cccnc12)C(=O)NC[C@H](O)CN1Cc2ccccc2C1` [compound 5, (R)—N—((S)-2-hydroxy-3-(isoindolin-2-yl)propyl)-2-(quinolin-8-yloxy)propanamide], the EC50 lay in the range of 0.101 to 1 µM.
Consider `O=C(COc1ccccc1-c1cc[nH]n1)NCC(O)CN1Cc2ccccc2C1` (stereo not shown) [compound 7], for which the EC50 is 0.101 to 1 µM.
The same measure, in the same setting: the result for `O=C(NCC(O)CN1Cc2ccccc2C1)c1cccc(-c2ccccn2)c1` (stereo not shown) [compound 13, N-(2-hydroxy-3-(isoindolin-2-yl)propyl)-3-(pyridin-2-yl)benzamide] reads 1 to 10 µM; that for `CN(C)S(=O)(=O)c1ccccc1OCC(=O)NCC(O)CN1Cc2ccccc2C1` (stereo not shown) [compound 15, 2-(2-(N,N-dimethylsulfamoyl)phenoxy)-N-(2-hydroxy-3-(isoindolin-2-yl)propyl)acetamide], 0.101 to 1 µM.
As for `O=C(COc1cccc2cccnc12)NCC(O)CN1Cc2ccccc2C1` (stereo not shown) [compound 19, N-(2-hydroxy-3-(isoindolin-2-yl)propyl)-2-(quinolin-8-yloxy)acetamide], the EC50 fell in the range of 1 to 10 µM.
On the same count and under the same terms, under `O=C(NC[C@H](O)CN1Cc2ccccc2C1)c1cccc(NC2CCOCC2)c1` [compound 28] stands 0.101 to 1 µM.
Still for that read-out and setting: under `O=C(NC[C@H](O)CN1Cc2ccccc2C1)c1cc(NC2CCOCC2)ncn1` [compound 29] stands 0.101 to 1 µM.
The same measure, in the same setting: under `Cc1nc(NC2COC2)cc(C(=O)NC[C@H](O)CN2Cc3ccccc3C2)n1` [compound 35] stands more than 1 µM; under `O=C(NC[C@H](O)CN1Cc2ccccc2C1)c1cc(NC2COC2)nc(C(F)(F)F)n1` [compound 36], 0.101 to 1 µM; under `O=C(CCc1nc2ccccc2[nH]1)NCC(O)CN1Cc2ccccc2C1` (stereo not shown) [compound 37], 0.101 to 1 µM.
Consider `O=C(NC[C@H](O)CN1Cc2ccccc2C1)c1cc(NC2COC2)nc(N2CCOCC2)n1` [compound 38], for which the half-maximal effective concentration (EC50) was less than 0.1 µM.
Still for that read-out and setting: the result for `CC(=O)N1CCC(Nc2cc(C(=O)NC[C@H](O)CN3Cc4ccccc4C3)ccn2)CC1` [compound 40] reads less than 0.1 µM; that for `O=C(NC[C@H](O)CN1CCc2ccccc21)c1cc(NC2COC2)ncn1` [compound 42], more than 1 µM.
Same read-out and setting: the result for `CC(=O)N1CCC(Nc2cc(C(=O)NC[C@H](O)CN3CCc4ccccc43)ncn2)CC1` [compound 43] reads more than 1 µM; that for `CC(=O)N1CCC(Nc2cc(C(=O)NC[C@H](O)CN3CCc4ccccc43)ccn2)CC1` [compound 44], more than 1 µM; that for `O=C(NC[C@H](O)CN1CCCCc2ccccc21)c1cc(NC2COC2)ncn1` [compound 45], more than 1 µM.
The same measure, in the same setting: the result for `CC(=O)N1CC(Nc2cc(C(=O)NC[C@H](O)CN3CCCCc4ccccc43)ncn2)C1` [compound 46] reads more than 1 µM.
With `CC(=O)N1CCC(Nc2cc(C(=O)NC[C@H](O)CN3CCCCc4ccccc43)ncn2)CC1` [compound 47], the EC50 was more than 1 µM.
Same read-out and setting: the result for `O=C(NC[C@H](O)CN1CCCc2ccccc2C1)c1cc(NC2COC2)ncn1` [compound 48] reads more than 1 µM; that for `CC(=O)N1CC(Nc2cc(C(=O)NC[C@H](O)CN3CCCc4ccccc4C3)ncn2)C1` [compound 49], more than 1 µM; that for `CC(=O)N1CCC(Nc2cc(C(=O)NC[C@H](O)CN3CCCc4ccccc4C3)ncn2)CC1` [compound 50], more than 1 µM.

For orientation: EC50 means the concentration that produces a half-maximal response.
